The results in this text go back to patent US5641760A, “Method of treating candida infection” (Pence, Inc., priority 1994, dated 1997).

Assay [1] has as its system Candida albicans strain #40 fimbriae (enriched fimbriae EF, 66 kDa fimbrial subunit/adhesin protein). Nature of the assay: Microtiter plate binding of fimbriae to immobilized glycosphingolipids. The conditions noted are these: GSL immobilized in microtiter wells (0.5 μg/well). The procedure:
Binding of Candida fimbriae to GSLs was further assessed using an assay in which GSLs were immobilized on microtiter plates. […] The amount of fimbriae bound is represented as the absorbance values measured at 405 nm. The concentration of fimbrial protein required for half-maximal binding was determined to be 8 μg/ml under the assay conditions, indicating a reasonably high affinity of fimbriae for asialo-GM1.
Polystyrene microtiter plate wells (Nunc) were coated with asialo-GM1 or ceramide trihexoside (CTH) (Sigma Chem. Co., St. Louis, Mo.). Aliquots of the GSLs (5 μg/ml resuspended in methanol) were added into the wells (100 μl/well) and the plates were incubated overnight at 4° C. The wells were washed three times with 250 μl/well of 10 mM phosphate buffered saline pH 7.4 containing 150 mM NaCl (PBS) supplemented with 0.05% (w/v) bovine serum albumin (Buffer A). […] Wells were washed 5 times with 250 μl/well of Buffer A. Antibody binding to EF was assessed by the addition of a goat anti-mouse heavy and light chain [IgG(H+L)] immunoglobulin G-peroxidase conjugates (Jackson Laboratories) to each well (100 μl/well) and incubated for 1 hour at 37° C. […] The reaction was stopped by an addition of 125 μl/well of 4 mM sodium azide and the absorbance at 405 nm was recorded.

Assay [2] shares this test system. Nature of the assay: Inhibition of fimbriae binding to immobilized glycosphingolipids by free glycosphingolipids. The procedure:
The binding specificity to GSLs was assessed in experiments in which free GSLs were tested for their abilities to inhibit binding of C. albicans fimbriae to immobilized GSLs. These experiments were carried out using the microtiter plate assay described above, and as further detailed in Example 5B. C. albicans fimbriae (50 μg/ml) were preincubated with varying concentrations of asialo-GM1 or CTH at 37° C. for an hour prior to addition into the precoated microtiter wells. In this assay, GSLs were suspended in phosphate buffered saline (PBS) at a sufficiently low concentration to prevent micellar formation. C. albicans fimbriae binding to immobilized asialo-GM1 was reduced by 78% (Diamonds, FIG. 11B) by asialo-GM1.
Polystyrene microtiter plate wells (Nunc) were coated with asialo-GM1 or ceramide trihexoside (CTH) (Sigma Chem. Co., St. Louis, Mo.). Aliquots of the GSLs (5 μg/ml resuspended in methanol) were added into the wells (100 μl/well) and the plates were incubated overnight at 4° C. The wells were washed three times with 250 μl/well of 10 mM phosphate buffered saline pH 7.4 containing 150 mM NaCl (PBS) supplemented with 0.05% (w/v) bovine serum albumin (Buffer A). Excess binding sites were blocked by the addition of 200 μl/well of 5% (w/v) BSA in PBS pH 7.4 and incubation at 37° C. for 1 hour. Wells were washed three times with 250 μl/well of buffer A. Enriched fimbriae ranging from 0 to 40 μg protein/ml in Buffer A were added to the wells (100 μl/well) and incubated for 2 hour at 37° C. Aliquots of mouse anti-EF monoclonal antibodies, Fm16 (diluted 1:500), was added to each well (100 μl) and incubated at 37° C. for 2 hours. Wells were washed 5 times with 250 μl/well of Buffer A. Antibody binding to EF was assessed by the addition of a goat anti-mouse heavy and light chain [IgG(H+L)] immunoglobulin G-peroxidase conjugates (Jackson Laboratories) to each well (100 μl/well) and incubated for 1 hour at 37° C. […] The reaction was stopped by an addition of 125 μl/well of 4 mM sodium azide and the absorbance at 405 nm was recorded. […]

Assay [3] shares this test system. Nature of the assay: Inhibition of fimbriae binding to immobilized βGalNAc(1-4)βGal-BSA conjugate. The conditions noted are these: plates coated with 10 μg/ml conjugate. The procedure: Further experiments to determine the specificity of fimbrial binding to GSLs were carried out using a plate binding assay, as described above, but immobilizing on the plates a βGalNAc(1-4)βGal-BSA conjugate, synthesized from βGalNAc(1-4)βGal-O(CH2)8 COOCH3 (Sabesan and Lemieux), as described in Part B, above. The coupling ratio of disaccharide: BSA was 12:1. The protocol utilized for this assay was similar to that employed for the assessment of C. albicans fimbriae binding to GSLs except that the plates were coated with 100 μl/well of a 10 μg/ml solution of synthetic βGalNAc(1-4)βGal-BSA conjugate in 0.01M carbonate buffer, pH 9.5.
Using this assay, it was first determined that fimbriae bind to the βGalNAc(1-4)βGal-BSA conjugate in a saturable, concentration-dependent manner. FIGS. 12A and 12B show the results of experiments in which compounds were tested for ability to inhibit binding of fimbriae to the βGalNAc(1-4)βGal-BSA conjugate. The protocol used in this assay was similar to the one used in the GSL inhibition assay described above, except that the plates were coated with 100 μl/well of a 10 μg/ml solution of synthetic βGalNAc(1-4)βGal-BSA conjugate in 0.01M carbonate buffer, pH 9.5. As depicted in FIG. 12A, βGalNAc(1-4)βGal-methylester ("GalNAcGal") was able to inhibit binding to the GalNAcGal-BSA conjugate in a concentration dependent manner. […]

Turning to “ceramide trihexoside [CTH, ceramide trihexoside [aGal(1-4)βGal(1-4)βGlc(1-1)Cer]]”, the “Binding of fimbriae to glycosphingolipid coated on wells” value in assay [1] (EF 0 to 40 μg protein/ml) was “failed to bind”. For the same substance, in assay [2] (fimbriae 50 μg/ml preincubated with competitor (0 to 15 μg/ml)), the “Competition of fimbriae binding” value is “No competition”.
As to “gangliotetraosylceramide: βGal(1-3)βGalNAc(1-4)βGal(1-4)βGlc(1-1)Cer [asialo-GM1]”, in assay [3], the “Concentration required for half-maximal inhibition of fimbriae binding to βGalNAc(1-4)βGal-BSA conjugate” value worked out at 7.5 µg/mL. Besides, the “Concentration of fimbrial protein required for half-maximal binding” value in assay [1] (the concentration is that of fimbrial protein) is 8 µg/mL. Moreover, the “Reduction of fimbriae binding to immobilized asialo-GM1” value in assay [2] (fimbriae 50 μg/ml preincubated with competitor (0 to 15 μg/ml) 1 h at 37° C.) is reported as 78%. Moreover, the “Concentration required for half-maximal inhibition” value in assay [2] (fimbriae 50 μg/ml, immobilized asialo-GM1) turned out to be 1.44 µg/mL.
